Results published in patent US20230277661A1, “TREATMENT OF CANCER USING A CEA CD3 BISPECIFIC ANTIBODY AND A TGFbeta SIGNALING INHIBITOR” (Hoffmann-La Roche Inc., priority 2020, published 2023).
Where two headings read alike, the source gives them in different places.

Columns and labels:
[1] = test system: patient-derived colorectal cancer organoid lines (PDOs) with high cell surface CEA expression levels; assay: PDO growth in co-culture with CD8 or CD4 T cells (GFP confluence); type: cell-based, human
Protocol: Three patient-derived colorectal cancer organoid lines (PDOs) with high cell surface CEA expression levels were treated with cibisatamab (20 nM) or the corresponding untargeted control antibody DP47-TCB (see SEQ ID NOs 21 and 22 for VH and VL regions, respectively) (20 nM) either in the presence or absence of recombinant TGFβ1 (10 ng/ml) during 12 days of co-culture with allogeneic CD8 T cells at an Effector:Target ratio of […] (FIG. 1A). Growth of the nuclear GFP labelled organoid cells was monitored by fluorescent microscopy. CD8 T cells had been generated from allogeneic healthy donor cells by extracting peripheral blood mononuclear (PBMCs) cells followed by stimulation with IL-2 and CD3/CD28-beads and expansion in vitro. CD8 T cells and PDOs +/− TGFβ (10 ng/ml) were pre-incubated together for 72 hours prior to the addition of cibisatamab or DP47-TCB.
The same experiment was repeated using two PDO lines and CD4 T cells instead of CD8 T cells (FIG. 1B). CD4+CD25-T cells were isolated from allogeneic healthy donor PBMCs and expanded in vitro as described above.
The initial screen was generated with in vitro expanded and pre-activated CD8 T-cells. […]
In order to calculate the growth of cibisatamab treated PDOs relative to DP47-TCB treated PDOs, the fold change of growth from day 0 to day 12 was calculated and 1 was subtracted. […]
PDOs were harvested with TrypLE Express and neutralised with DMEM/F12 Ham medium (Sigma Aldrich) with 10% FBS. Cells were filtered through a 70 μm filter, counted and re-suspended in RPMI medium (Thermo Fisher) supplemented with 10% FBS (Labtech), 1X Glutamax and 100 units penicillin-streptomycin. […]
(§1) The GFP confluence was quantified every 48-96 hrs over a 12-day period using the GFP confluence application on the Celigo Imaging Cytometer (Nexcelom Bioscience). […] In order to calculate the percentage of growth reduction, the fold change of growth from day 0 to day 12 was calculated and 1 was subtracted. […]

CD8 T-cells = assay: FACS analysis of CD8 T-cells co-cultured with PDOs; type: cell-based, human; conditions: 8 days co-culture with PDOs during CEA-TCB treatment; flow cytometry
Protocol: FIG. 3. Effect of TGFβ on granzyme expression and proliferation of CD8 T-cells. (A) Granzyme expression in ex vivo CD8 T-cells determined by flow cytometry after 8 days of co-culture with a high cell surface CEA expressing PDO. (B) Proliferation of ex vivo CD8 T-cells treated with either DP47-TCB or cibisatamab assessed by flow cytometry after 8 days of co-culture with a high cell surface CEA expressing PDO. (C) Same as (B) except that co-culture was treated with recombinant TGFβ.
Thus, TGFβ potently suppresses cibisatamab mediated tumor control by blocking proliferation and effector functions.

[2] = test system: PDOs that stably express high CEA levels; assay: PDO and ex vivo CD8 T-cell co-culture with TGFβ inhibitor galunisertib; type: cell-based, human; conditions: galunisertib 5 μM or 10 μM; TGFβ 10 ng/ml; cibisatamab 20 nM; ex vivo CD8 T cells, E:T 1:1; two PDO models
Protocol: PDOs that stably express high CEA levels were combined with ex vivo allogeneic CD8 T cells isolated from healthy donor PBMCs in a 2D co-culture at an effector:target (E:T) ratio of 1:1. T cells were preincubated with TGFβ (10 ng/ml) prior to adding either DP47 or cibisatamab treatment with or without TGFβ inhibitor galunisertib.
The growth of GFP PDOs was tracked by monitoring changes in confluency with fluorescence microscopy and efficacy of the combination therapy assessed by comparing growth reduction from single therapy and combined therapy conditions.
Ex vivo CD8 T cells were isolated from PBMCs as described above and pre-incubated with TGFβ (10 ng/ml) for 72 hours before being combined with tumour cells that were seeded 24 hours before at a density of 5000 tumour cells per well in a 96 well plate as described above (E:T 1:1). On the same day (day 0) the co-culture was treated with either 20 nM of cibisatamab or 20 nM of the untargeted negative control antibody DP47-TCB +/− TGFβ ([…]) +/− galunisertib (5 μM or 10 μM, Tocris). All conditions were plated in triplicates.
as §1

[3] = test system: CEA expressing metastatic CRCs; conditions: cited from earlier work

TGFβ: recombinant TGFβ1 (10 ng/ml, R&D Systems) added to the co-cultures as immunosuppressive factor
growth of cibisatamab treated PDOs compared to PDOs treated with cibisatamab alone ([1]; TGFβ 10 ng/ml added, day 12, CD8 and CD4 T cells): increased the growth of cibisatamab treated PDOs | effect of TGFβ on efficacy of cibisatamab ([1]; TGFβ1 10 ng/ml, cibisatamab 20 nM, CD8 and CD4 T cells, 12 days co-culture): impaired the efficacy of cibisatamab | T-cell granzyme expression (CD8 T-cells): strongly reduced | proliferation of T-cells (CD8 T-cells): strongly reduced

Cc1cccc(-c2nn3c(c2-c2ccnc4ccc(C(N)=O)cc24)CCC3)n1 [Galunisertib, 4-(5,6-Dihydro-2-(6-methyl-2-pyridinyl)-4H-pyrrolo(1,2-b)pyrazol-3-yl)-6-quinolinecarboxamide]
reversal of TGFβ effects on cibisatamab activity (PDO growth) [2]: strongly reduced TGFβ effects

B1: cibisatamab: T-cell activating bispecific antibody targeting carcinoembryonic antigen (CEA) on tumor cells and CD3 on T-cells (antibody, chains of the INN, looked up, V domains shown)
VH: QVQLVQSGAEVKKPGASVKVSCKASGYTFTEFGMNWVRQAPGQGLEWMGWINTKTGEATYVEEFKGRVTFTTDTSTSTAYMELRSLRSDDTAVYYCARWDFAYYVEAMDYWGQGTTVTVSS
VL: DIQMTQSPSSLSASVGDRVTITCKASAAVGTYVAWYQQKPGKAPKLLIYSASYRKRGVPSRFSGSGSGTDFTLTISSLQPEDFATYYCHQYYTYPLFTFGQGTKLEIK
VH2: QVQLVQSGAEVKKPGASVKVSCKASGYTFTEFGMNWVRQAPGQGLEWMGWINTKTGEATYVEEFKGRVTFTTDTSTSTAYMELRSLRSDDTAVYYCARWDFAYYVEAMDYWGQGTTVTVSS
VL2: QAVVTQEPSLTVSPGGTVTLTCGSSTGAVTTSNYANWVQEKPGQAFRGLIGGTNKRAPGTPARFSGSLLGGKAALTLSGAQPEDEAEYYCALWYSNLWVFGGGTKLTVL
growth of PDOs relative to DP47-TCB treated (control) PDOs ([1]; cibisatamab 20 nM, day 12, CD8 or CD4 T cells): reduced the growth of PDOs | antitumor activity with radiological shrinkage, share of patients ([3]; in combination with PD-L1-inhibiting antibodies, 5/10): 50% | antitumor activity with radiological shrinkage, share of patients ([3]; monotherapy, patients had failed at least two prior chemotherapy regimens, 4/36): 11%
